Measured values reported in patent USRE37664E1, “Use of derivatives of N-phenl-3,4,5,6-tetrahydrophthalimide for the desiccation and abscission of plant organs” (BASF Aktiengessellschaft, priority 1989, dated 2002).
Where a name gives a salt, the structure may show the parent alone.

Assays:
[1] = system: cotton plants (Delta Pine variety); assay: Defoliation of young cotton plants under greenhouse conditions, Example C; format: in vivo; conditions: foliar treatment of young cotton plants, 3 days after application, day/night 28/20° C., percentage of the control
Method: (§1) Young cotton plants (Delta Pine variety, stage of development: 5-6 developed foliage leaves) were cultivated under green house conditions (day/night temperature 28/20° C., relative humidity 514 70%) and the foliage was treated, until dripping wet, with aqueous formulations of the stated active ingredients. The converted amount of water was 1,000 l/ha. 3 days after application of the active ingredient, the number of dropped leaves and the degree of defoliation as a percentage of the control were stared. No dropping of leaves occurred in the untreated control plants.

[2] = system: cotton plants (Delta Pine variety); assay: Defoliation of young cotton plants under greenhouse conditions, Example A; format: in vivo; conditions: 12 days after application, day/night 23/16° C., as a percentage of the control
Method: as §1, with “development stage:” for “stage of development:”, “greenhouse” for “green house”, “23/16°” for “28/20°”, “50-70%)” for “514 70%)”, “12” for “3”, “stated.” for “stared.”

[3] = converted application rate 0.125 kg/ha
[4] = converted application rate 0.250 kg/ha

Structure (SMILES)	melting point	% defoliation [1, 3]	% defoliation [1, 4]	% defoliation ([2]; 0.062 kg/ha)	% defoliation ([2]; 0.125 kg/ha)	% defoliation ([2]; 0.250 kg/ha)	% defoliation ([2]; 0.500 kg/ha)
Cc1ncccc1C(=O)N(C)C	87 to 103 °C	–	–	–	–	–	–
CC1CCCO1 (centres unmarked)	–	48%	53%	–	–	–	–
O=C(Nc1ccccc1)Nc1cnns1 [Comparative agent I, N-phenyl-N′-(1,2,3-thiadiazol-5-yl)-urea, reference compound]	–	–	–	13%	31%	67%	–
c1cc[n+]2c(c1)-c1cccc[n+]1CC2 [Comparative agent II, 6,7-dihydropyridol(1,2-α:2′,1′-c)pyridilium as the dibromide monohydrate salt, reference compound]	–	–	–	–	–	11%	27%
COC(=O)C(Br)=Cc1cc(N2C(=O)C3=C(CCCC3)C2=O)ccc1Cl [Compound 1.1]	–	100%	98%	26%	61%	80%	–
CCOC(=O)C(Cl)=Cc1cc(N2C(=O)C3=C(CCCC3)C2=O)ccc1Cl [Compound 1.17, N-[3-(1′-ethoxycarbonyl-1′-chloroethenyl)-4-chlorophenyl]-3,4,5,6-tetrahydrophthalimide]	–	95%	100%	55%	84%	89%	–
COC(=O)C(C)=Cc1cc(N2C(=O)C3=C(CCCC3)C2=O)ccc1Cl [Compound 1.26]	–	–	–	67%	79%	89%	–
CC1CSC(c2cc(N3C(=O)C4=C(CCCC4)C3=O)ccc2Cl)S1 (centres unmarked) [Compound 2.5]	–	97%	100%	50%	70%	97%	–
O=C1C2=C(CCCC2)C(=O)N1c1cc(OCC2CCCOC2)c(Cl)cc1F (centres unmarked) [Compound 4.1]	–	–	–	83%	–	–	–
COC(=O)C(C)ON=C(C#N)c1cc(N2C(=O)C3=C(CCCC3)C2=O)ccc1Cl (centres unmarked) [Compound 7.27]	–	100%	95%	–	–	–	–
